Reference: paper PMC5447021, “TNF Lectin-Like Domain Restores Epithelial Sodium Channel Function in Frameshift Mutants Associated with Pseudohypoaldosteronism Type 1B” (Frontiers in Immunology, 2017)

Biological target: T1, αβγ-hENaC (Homo sapiens, UniProt P37088+P51168+P51170)
T1 construct: expressed in transfected cells; host or cells: HEK-293
T1 sequence (P37088 1-669): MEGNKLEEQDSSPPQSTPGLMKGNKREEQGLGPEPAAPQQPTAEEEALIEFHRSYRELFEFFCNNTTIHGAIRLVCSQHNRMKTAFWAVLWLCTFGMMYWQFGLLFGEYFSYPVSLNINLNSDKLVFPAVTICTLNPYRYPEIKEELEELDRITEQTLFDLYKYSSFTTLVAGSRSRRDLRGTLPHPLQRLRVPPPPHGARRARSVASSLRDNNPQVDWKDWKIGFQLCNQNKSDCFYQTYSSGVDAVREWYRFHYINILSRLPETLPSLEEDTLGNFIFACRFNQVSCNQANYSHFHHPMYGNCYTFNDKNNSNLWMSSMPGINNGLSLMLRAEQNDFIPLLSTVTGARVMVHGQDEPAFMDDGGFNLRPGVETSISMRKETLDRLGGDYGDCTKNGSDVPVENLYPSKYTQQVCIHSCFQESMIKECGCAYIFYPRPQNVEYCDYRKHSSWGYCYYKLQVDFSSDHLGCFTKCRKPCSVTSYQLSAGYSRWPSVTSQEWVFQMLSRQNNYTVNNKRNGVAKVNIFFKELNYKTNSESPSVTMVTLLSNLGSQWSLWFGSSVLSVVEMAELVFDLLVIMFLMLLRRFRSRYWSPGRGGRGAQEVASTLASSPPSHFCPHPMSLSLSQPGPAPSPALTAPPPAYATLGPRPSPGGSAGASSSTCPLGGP
T1 sequence (P51168 1-640 partner): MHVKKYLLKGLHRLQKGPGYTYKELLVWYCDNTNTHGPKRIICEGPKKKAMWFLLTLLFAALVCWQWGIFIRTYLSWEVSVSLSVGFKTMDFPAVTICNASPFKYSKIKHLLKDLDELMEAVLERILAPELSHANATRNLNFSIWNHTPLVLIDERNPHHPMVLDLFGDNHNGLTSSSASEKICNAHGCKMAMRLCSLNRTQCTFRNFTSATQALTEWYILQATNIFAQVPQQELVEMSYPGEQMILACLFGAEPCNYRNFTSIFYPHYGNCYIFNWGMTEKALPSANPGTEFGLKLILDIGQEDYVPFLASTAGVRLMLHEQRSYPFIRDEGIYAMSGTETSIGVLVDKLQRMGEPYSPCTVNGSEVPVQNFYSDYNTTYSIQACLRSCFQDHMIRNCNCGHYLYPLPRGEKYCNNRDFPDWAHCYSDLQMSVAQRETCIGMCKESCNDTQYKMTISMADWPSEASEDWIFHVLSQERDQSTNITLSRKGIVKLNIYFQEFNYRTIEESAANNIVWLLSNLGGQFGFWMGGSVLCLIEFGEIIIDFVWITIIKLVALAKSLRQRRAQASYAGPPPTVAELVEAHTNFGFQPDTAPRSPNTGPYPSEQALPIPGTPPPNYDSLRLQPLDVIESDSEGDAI
T1 sequence (P51170 1-649 partner): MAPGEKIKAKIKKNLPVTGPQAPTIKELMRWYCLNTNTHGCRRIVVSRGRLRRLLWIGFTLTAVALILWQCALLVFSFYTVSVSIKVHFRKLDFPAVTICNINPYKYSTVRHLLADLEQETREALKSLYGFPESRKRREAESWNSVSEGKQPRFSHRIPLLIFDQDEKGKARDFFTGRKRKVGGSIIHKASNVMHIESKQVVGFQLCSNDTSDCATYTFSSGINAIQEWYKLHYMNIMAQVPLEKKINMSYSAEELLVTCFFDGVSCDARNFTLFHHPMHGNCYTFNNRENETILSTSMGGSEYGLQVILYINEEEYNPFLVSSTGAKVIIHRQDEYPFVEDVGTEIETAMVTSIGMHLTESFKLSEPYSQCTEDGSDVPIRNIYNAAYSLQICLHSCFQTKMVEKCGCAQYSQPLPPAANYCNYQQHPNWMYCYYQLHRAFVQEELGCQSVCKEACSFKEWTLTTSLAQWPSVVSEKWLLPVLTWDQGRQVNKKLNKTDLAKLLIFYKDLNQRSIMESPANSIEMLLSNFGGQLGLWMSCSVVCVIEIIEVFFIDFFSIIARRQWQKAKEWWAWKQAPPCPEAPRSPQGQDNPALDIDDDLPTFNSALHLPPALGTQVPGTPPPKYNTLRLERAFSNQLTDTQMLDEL
Assay: Whole-cell patch clamp, WT αβγ-hENaC
Assay type: cell-based
Conditions: exposure time, WT αβγ-ENaC (Figure 1)
Protocol: Point mutations of α-, β-, γ- and δ-hENaC and PHA1B frameshift mutations of α-hENaC were prepared with the QuikChange Lightning Site-Directed Mutagenesis Kit (Agilent Technologies, CA, USA). Mutagenic primers were designed individually with the Primer Design Program provided on the producer’s website or for the frameshift mutations the same base changes as reported in patients (see Table 2) were performed. Primers were ordered from Sigma-Aldrich, Vienna, Austria.
HEK-293 cells were transfected 1 day after cell seeding using X-tremeGENE HP DNA transfection reagent (Roche Diagnostics, Mannheim, Germany) according to the manufacturer’s protocol. A set of WT or mutant αβγ- or δβγ-hENaC, or α-, β-, γ-, or δ-hENaC alone was used, and the ratio of DNA to transfection reagent was 1:3. The expression was highest 48–72 h after transfection.
Electrophysiological experiments were performed as described in detail by Shabbir et al. ([16]). […] Currents were recorded with the patch clamp method in the whole-cell mode. The chamber contained 1 ml of the bath solution of the following composition (in mM): 145 NaCl, 2.7 KCl, 1.8 CaCl2, 2 MgCl2, 5.5 glucose, and 10 HEPES, adjusted to pH 7.4 with 1 M NaOH solution. Micropipettes were pulled from thin-walled borosilicate glass capillaries (Harvard Apparatus, Holliston, MA, USA) with a DMZ Zeitz Puller to obtain electrode resistances ranging from 2 to 5 MΩ. The pipette solution contained (in millimolars): 135 potassium methane sulfonate, 10 KCl, 6 NaCl, 1 Mg2ATP, 2 Na3ATP, 10 HEPES, and 0.5 EGTA, adjusted to pH 7.2 with 1 M KOH solution. Chemicals for pipette and bathing solutions were supplied by Sigma-Aldrich (Vienna, Austria). Electrophysiological measurements were carried out with an Axopatch 200B patch clamp amplifier (Axon Instruments, CA, USA). Capacity transients were canceled, and series resistance was compensated. Whole-cell currents were filtered at 5 kHz and sampled at 10 kHz. Data acquisition and storage were processed directly to a PC equipped with pCLAMP 10.2 software (Axon Instruments, CA, USA). […]

**Q.** How did the “Time to maximal stimulatory effect” value turn out when `C[C@@H]1NC(=O)CNC(=O)[C@H](CCC(=O)O)NC(=O)[C@@H]2CCCN2C(=O)[C@H]([C@@H](C)O)NC(=O)[C@H](CCC(=O)O)NC(=O)[C@H](CCCNC(=N)N)NC(=O)[C@H](CCC(N)=O)NC(=O)CNC(=O)[C@@H](N)CSSC[C@@H](C(=O)O)NC(=O)[C@H](Cc2ccc(O)cc2)NC(=O)[C@H](Cc2c[nH]c3ccccc23)NC(=O)[C@@H]2CCCN2C(=O)[C@H](CCCCN)NC(=O)[C@H](C)NC(=O)[C@H](CCC(=O)O)NC1=O` [solnatide, L-cysteine, L-cysteinylglycyl-L-glutaminyl-L-arginyl-L-α-glutamyl-L-threonyl-L-prolyl-L-α-glutamylglycyl-L-alanyl-L-α-glutamyl-L-alanyl-L-lysyl-L-prolyl-L-tryptophyl-L-tyrosyl-, cyclic (1→17)-disulfide] was run?
**A.** ~ 2 min
